Test results taken from ChEMBL document CHEMBL1201862, “PubChem BioAssay data set” (2004).
Blank lines part the entries; values can stand above or below the molecule they belong to. Calls of active or inactive are those of the source.

What was measured:
[1] = biological target: DNA dC->dU-editing enzyme APOBEC-3G (Homo sapiens, UniProt Q9HC16); assay: Dose Response confirmation of small molecule APOBEC3G DNA Deaminase Inhibitors via a fluorescence-based single-stranded DNA deaminase assay. [Related pubchem assays (depositor defined):AID493012, AID493028]; format: functional
[2] = biological target: DNA dC->dU-editing enzyme APOBEC-3A (Homo sapiens, UniProt P31941); assay: APOBEC3A DNA deaminase inhibitors, dose response, biochemical (AID 504722); format: functional
[3] = biological target: Peroxisome proliferator-activated receptor gamma/Nuclear receptor coactivator 3 (Homo sapiens, UniProt P37231); format: functional;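 further: agonist potency for raising coactivator recruitment to the receptor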
[4] = biological target: Peroxisome proliferator-activated receptor gamma/Nuclear receptor coactivator 1 (Homo sapiens, UniProt P37231); format: functional;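 further: agonist potency as compounds enhance coactivator SRC-1 recruitment to PPARgamma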
[5] = biological target: Peroxisome proliferator-activated receptor gamma/Nuclear receptor coactivator 2 (Homo sapiens, UniProt P37231); format: functional;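 further: agonist potency for raising coactivator recruitment to the receptor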
[6] = biological target: 5-hydroxytryptamine receptor 5A (Homo sapiens, UniProt P47898); assay: Counterscreen for agonists of OPRM1-OPRD1 heterodimerization: luminescence-based cell-based high throughput dose response assay to identify agonists of 5-hydroxytryptamine (serotonin) 5A receptor (HTR5A). [Related pubchem assays (depositor defined):AID504326, AID504355, AID504692, AID504904, AID504905]; format: functional
[7] = biological target: Delta-type opioid receptor (Homo sapiens, UniProt P41143); assay: Counterscreen for agonists of heterodimerization of the mu 1 (OPRM1) and delta 1 (OPRD1) opioid receptors: Luminescence-based cell-based high throughput dose response assay to identify agonists of OPRD1 homodimerization. [Related pubchem assays (depositor defined):AID504326, AID504355, AID504692, AID504904, AID504905]; format: functional
[8] = biological target: Mu-type opioid receptor (Homo sapiens, UniProt P35372); assay: Counterscreen for agonists of heterodimerization of the mu 1 (OPRM1) and delta 1 (OPRD1) opioid receptors: Luminescence-based cell-based high throughput dose response assay to identify agonists of OPRM1 homodimerization.; format: functional;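 further: U2OS cells expressing OPRM1 and beta-arrestin as split beta-galactosidase partners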
[9] = biological target: Cytochrome P450 3A4 (Homo sapiens, UniProt P08684);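 further: CYP3A4 tested as one member of a cytochrome P450 panel screen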
[10] = biological target: SUMO-activating enzyme (Homo sapiens, UniProt Q9UBT2); assay: SUMOylation inhibitor hit validation, confirmation, SUMOylation inhibitor project, biochemical, AlphaScreen (AID 2018); format: functional
[11] = biological target: T1, Bcl-2-related protein A1 (Mus musculus, UniProt Q07440); format: functional;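 further: confirmatory dose–response counterscreen on Bfl-1, used to check hits from a UBC13 polyubiquitin inhibitor campaign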
T1 sequence (Q07440 whole entry): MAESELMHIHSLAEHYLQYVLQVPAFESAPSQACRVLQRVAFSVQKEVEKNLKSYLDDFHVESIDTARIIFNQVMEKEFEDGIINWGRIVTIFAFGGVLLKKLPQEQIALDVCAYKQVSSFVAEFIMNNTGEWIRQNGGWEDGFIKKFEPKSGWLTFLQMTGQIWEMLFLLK

[12] = biological target: T2, Ubiquitin-conjugating enzyme E2 N (Homo sapiens, UniProt P61088); format: functional
T2 sequence (P61088 whole entry): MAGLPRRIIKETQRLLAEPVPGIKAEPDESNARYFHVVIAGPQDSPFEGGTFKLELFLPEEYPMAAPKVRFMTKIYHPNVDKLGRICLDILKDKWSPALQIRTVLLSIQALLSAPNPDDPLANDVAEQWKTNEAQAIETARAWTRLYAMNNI

[13] = biological target: T2, Ubiquitin-conjugating enzyme E2 N; format: functional; remark: listed apart in the source
[14] = biological target: Ion channel NompC (Danio rerio, UniProt Q7T1G6); assay: Fluorescence counterscreen assay for TRPML3 agonists: dose response cell-based high-throughput screening assay to identify agonists of the transient receptor potential channel N1 (TRPN1). [Related pubchem assays: 1526, 1424, 1448 ]; format: functional
[15] = biological target: T3, Mucolipin-3 (Homo sapiens, UniProt Q8TDD5); assay: Dose response cell-based high-throughput screening assay for agonists of the transient receptor potential channel ML3 (TRPML3). [Related pubchem assays: 1526, 1424, 1448 ]; format: functional
T3 sequence (Q8TDD5 whole entry): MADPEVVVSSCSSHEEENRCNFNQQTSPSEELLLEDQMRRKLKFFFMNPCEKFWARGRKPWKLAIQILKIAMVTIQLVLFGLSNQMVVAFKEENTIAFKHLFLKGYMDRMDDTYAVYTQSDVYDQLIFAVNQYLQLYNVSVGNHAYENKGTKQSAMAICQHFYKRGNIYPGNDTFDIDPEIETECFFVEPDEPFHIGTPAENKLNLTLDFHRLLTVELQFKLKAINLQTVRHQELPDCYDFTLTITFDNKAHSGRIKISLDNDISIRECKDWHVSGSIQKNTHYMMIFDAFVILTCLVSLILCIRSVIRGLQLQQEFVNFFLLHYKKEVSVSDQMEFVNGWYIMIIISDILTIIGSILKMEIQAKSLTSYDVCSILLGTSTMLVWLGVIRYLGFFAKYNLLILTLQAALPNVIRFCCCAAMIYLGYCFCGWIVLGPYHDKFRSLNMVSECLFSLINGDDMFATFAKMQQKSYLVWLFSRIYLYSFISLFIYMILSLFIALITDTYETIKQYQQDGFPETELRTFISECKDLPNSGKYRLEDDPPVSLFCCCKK

[16] = biological target: Cytochrome P450 2C9 (Homo sapiens, UniProt P11712)

Sequence of 5-hydroxytryptamine receptor 5A (P47898 whole entry): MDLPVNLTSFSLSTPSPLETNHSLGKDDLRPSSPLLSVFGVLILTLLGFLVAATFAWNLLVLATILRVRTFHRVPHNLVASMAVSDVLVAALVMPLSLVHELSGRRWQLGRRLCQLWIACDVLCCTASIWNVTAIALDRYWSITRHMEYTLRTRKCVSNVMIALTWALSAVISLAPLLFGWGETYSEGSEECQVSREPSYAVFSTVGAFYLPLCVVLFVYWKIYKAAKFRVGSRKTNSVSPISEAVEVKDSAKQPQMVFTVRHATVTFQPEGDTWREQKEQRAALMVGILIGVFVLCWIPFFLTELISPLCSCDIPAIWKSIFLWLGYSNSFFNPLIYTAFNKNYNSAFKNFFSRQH
Sequence of DNA dC->dU-editing enzyme APOBEC-3G (Q9HC16 whole entry): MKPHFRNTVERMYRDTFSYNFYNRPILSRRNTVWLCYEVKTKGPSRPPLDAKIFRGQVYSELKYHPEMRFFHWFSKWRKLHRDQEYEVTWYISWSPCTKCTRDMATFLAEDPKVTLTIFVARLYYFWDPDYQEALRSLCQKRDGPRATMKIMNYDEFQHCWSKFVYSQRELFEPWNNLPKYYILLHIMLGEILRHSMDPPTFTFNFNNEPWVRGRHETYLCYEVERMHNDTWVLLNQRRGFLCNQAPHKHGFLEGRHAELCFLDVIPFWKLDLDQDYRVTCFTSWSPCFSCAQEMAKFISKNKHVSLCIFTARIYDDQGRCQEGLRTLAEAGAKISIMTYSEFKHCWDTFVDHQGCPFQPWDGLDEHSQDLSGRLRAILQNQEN
Sequence of Delta-type opioid receptor (P41143 whole entry): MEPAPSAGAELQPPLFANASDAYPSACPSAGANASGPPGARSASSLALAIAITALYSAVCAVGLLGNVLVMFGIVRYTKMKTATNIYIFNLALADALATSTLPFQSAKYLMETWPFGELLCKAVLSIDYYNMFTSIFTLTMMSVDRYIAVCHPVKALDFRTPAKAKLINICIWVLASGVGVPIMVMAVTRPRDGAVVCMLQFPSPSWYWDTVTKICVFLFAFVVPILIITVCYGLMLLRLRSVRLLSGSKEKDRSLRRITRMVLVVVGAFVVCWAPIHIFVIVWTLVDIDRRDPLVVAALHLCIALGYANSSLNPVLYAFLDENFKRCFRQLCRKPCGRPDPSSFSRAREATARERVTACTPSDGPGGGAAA
Sequence of DNA dC->dU-editing enzyme APOBEC-3A (P31941 whole entry): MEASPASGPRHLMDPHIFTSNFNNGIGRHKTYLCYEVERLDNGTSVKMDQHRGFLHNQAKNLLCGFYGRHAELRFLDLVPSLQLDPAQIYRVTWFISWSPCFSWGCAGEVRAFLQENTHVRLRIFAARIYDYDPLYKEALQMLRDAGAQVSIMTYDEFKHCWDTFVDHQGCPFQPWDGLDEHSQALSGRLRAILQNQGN
Sequence of Mu-type opioid receptor (P35372 whole entry): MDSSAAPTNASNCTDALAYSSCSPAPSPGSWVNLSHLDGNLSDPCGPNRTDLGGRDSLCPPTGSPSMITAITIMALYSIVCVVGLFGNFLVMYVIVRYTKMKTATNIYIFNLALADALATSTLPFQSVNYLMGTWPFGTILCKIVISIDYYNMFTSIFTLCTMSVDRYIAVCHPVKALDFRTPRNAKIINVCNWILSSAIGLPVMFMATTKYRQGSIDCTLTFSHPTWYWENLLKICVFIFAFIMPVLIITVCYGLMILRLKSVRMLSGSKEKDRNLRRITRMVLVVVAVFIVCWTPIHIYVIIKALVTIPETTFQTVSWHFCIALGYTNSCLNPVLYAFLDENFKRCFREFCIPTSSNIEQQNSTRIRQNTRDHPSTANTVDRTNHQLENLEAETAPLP
Sequence of SUMO-activating enzyme (Q9UBE0 whole entry): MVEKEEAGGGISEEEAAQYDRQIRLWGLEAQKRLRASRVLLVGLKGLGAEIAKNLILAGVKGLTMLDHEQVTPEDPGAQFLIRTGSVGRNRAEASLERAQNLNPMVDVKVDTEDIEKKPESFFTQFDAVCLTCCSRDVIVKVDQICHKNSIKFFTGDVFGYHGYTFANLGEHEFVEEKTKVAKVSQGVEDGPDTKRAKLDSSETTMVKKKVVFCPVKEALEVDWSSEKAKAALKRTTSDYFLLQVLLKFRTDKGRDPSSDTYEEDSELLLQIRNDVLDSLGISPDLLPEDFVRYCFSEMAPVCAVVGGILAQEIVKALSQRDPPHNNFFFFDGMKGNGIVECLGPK
Sequence of SUMO-activating enzyme (Q9UBT2 whole entry): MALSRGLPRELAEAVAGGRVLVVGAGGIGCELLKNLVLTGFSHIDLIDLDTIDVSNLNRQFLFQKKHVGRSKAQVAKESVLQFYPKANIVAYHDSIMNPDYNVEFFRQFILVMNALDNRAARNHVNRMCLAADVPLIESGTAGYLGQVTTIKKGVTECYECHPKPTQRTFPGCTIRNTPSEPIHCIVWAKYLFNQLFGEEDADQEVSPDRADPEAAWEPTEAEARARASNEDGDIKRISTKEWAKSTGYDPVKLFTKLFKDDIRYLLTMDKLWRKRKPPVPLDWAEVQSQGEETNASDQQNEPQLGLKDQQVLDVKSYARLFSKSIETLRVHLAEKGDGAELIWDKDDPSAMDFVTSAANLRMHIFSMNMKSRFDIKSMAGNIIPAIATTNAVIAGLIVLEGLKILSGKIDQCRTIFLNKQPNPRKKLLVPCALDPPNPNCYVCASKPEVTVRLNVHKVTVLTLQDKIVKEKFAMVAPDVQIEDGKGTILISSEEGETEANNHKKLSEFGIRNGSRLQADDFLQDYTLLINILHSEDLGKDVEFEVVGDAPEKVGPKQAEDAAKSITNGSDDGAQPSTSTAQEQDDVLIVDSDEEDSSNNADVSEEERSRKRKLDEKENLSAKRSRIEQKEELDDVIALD
Sequence of Cytochrome P450 3A4 (P08684 whole entry): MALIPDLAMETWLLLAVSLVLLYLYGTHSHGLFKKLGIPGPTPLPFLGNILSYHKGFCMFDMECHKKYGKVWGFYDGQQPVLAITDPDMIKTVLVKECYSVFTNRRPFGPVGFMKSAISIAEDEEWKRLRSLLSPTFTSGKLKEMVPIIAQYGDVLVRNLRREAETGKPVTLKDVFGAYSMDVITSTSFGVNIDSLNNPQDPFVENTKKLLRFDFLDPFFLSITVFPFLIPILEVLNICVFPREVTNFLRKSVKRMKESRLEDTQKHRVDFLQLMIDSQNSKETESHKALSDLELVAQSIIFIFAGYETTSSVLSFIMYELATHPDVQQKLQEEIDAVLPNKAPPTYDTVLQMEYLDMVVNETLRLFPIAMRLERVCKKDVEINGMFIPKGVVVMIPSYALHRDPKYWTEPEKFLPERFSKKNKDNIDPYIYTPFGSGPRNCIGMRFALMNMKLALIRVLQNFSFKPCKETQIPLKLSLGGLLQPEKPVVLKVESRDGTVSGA
Sequence of Ion channel NompC (Q7T1G6 whole entry): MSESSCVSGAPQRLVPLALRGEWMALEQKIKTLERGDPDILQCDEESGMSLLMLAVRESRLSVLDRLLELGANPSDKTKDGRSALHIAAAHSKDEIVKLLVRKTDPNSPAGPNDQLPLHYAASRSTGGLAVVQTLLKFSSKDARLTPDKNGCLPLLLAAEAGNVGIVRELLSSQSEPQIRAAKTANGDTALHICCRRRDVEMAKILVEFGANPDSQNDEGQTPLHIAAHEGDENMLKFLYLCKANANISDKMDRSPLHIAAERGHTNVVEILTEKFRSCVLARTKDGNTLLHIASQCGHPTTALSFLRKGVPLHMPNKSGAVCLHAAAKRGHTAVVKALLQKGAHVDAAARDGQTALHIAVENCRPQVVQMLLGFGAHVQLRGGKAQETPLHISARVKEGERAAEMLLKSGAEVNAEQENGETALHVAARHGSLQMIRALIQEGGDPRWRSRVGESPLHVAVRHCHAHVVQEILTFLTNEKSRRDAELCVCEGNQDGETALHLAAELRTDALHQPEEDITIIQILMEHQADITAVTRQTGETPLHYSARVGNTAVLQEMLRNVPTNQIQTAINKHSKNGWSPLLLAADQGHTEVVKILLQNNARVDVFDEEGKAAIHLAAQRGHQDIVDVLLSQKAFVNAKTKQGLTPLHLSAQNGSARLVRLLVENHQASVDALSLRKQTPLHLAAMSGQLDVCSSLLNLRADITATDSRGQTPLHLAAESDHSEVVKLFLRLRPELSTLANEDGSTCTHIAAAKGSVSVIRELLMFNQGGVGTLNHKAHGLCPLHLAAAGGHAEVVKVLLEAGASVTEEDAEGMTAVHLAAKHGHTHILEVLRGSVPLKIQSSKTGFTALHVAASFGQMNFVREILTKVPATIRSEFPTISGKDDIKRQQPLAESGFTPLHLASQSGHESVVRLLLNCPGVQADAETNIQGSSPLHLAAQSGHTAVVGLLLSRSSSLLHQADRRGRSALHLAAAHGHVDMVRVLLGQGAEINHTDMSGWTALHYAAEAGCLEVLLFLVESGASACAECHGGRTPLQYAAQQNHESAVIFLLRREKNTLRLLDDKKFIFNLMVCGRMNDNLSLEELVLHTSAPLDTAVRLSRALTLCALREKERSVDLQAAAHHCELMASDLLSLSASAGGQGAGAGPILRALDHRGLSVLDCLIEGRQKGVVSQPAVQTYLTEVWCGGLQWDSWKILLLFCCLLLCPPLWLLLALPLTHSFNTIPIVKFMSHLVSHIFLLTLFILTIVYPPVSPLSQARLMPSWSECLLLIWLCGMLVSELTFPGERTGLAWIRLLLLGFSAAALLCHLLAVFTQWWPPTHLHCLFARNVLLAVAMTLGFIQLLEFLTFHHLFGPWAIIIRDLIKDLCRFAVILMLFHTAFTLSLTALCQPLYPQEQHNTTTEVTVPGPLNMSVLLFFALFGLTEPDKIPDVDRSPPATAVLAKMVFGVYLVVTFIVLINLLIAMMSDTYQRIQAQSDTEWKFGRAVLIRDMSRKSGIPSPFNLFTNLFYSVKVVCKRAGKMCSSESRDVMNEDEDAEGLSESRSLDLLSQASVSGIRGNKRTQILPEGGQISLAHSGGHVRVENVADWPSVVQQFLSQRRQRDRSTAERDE

SMILES: O=c1[nH]c(SCc2n[nH]c(=S)n2-c2ccccc2)nc2ccccc12
IC50 [1]: 3.8 µM (active)
IC50 [2]: > 100 µM (inactive)

SMILES: CC(C)n1c(SCC(=O)NCc2ccco2)nc2c1c(=O)n(C)c(=O)n2C
EC50 [3]: > 79.4 µM (not active)
EC50 [4]: > 79.4 µM (not active)
EC50 [5]: > 79.4 µM (not active)

SMILES: Cc1ccc(OCC(=O)Nc2ccc(NC(=O)c3cccs3)cc2)c(C)c1
EC50 [6]: > 92.5 µM (inactive)
EC50 [7]: > 92.5 µM (inactive)
EC50 [8]: > 92.5 µM (inactive)

SMILES: Cc1cc(/C=C2\C(=O)NN(c3ccccc3)C2=O)c(C)n1-c1ccccc1O
IC50 [10]: 40.7 µM (active)

SMILES: Cc1cc(C)c2[nH]c(O)c(N=NC(S)=NCC3CCCO3)c2c1 (stereo not given)
IC50 [11]: > 20 µM (inactive)
IC50 [12]: 10.2 µM (active)
IC50 [13]: 0.509 µM (active)

SMILES: COc1cc(-c2n[nH]c(=S)n2-c2ccc(C)cc2)cc(OC)c1OC
IC50 [1]: 3.38 µM (active)
IC50 [2]: > 100 µM (inactive)

SMILES: Sc1nnc(-c2ccncc2)n1/N=C/c1ccccc1Cl
IC50 [1]: 3.46 µM (active)
IC50 [2]: > 100 µM (inactive)

SMILES: COc1ccc(/C=N/n2c(S)nnc2-c2[nH]nc3c2CCC3)cc1
IC50 [1]: 3.61 µM (active)
IC50 [2]: > 100 µM (inactive)

Now from value to molecule:

AC50 [9]: inconclusive
SMILES: N#Cc1cccc(NC(=O)N2CC3(CCN(C(=O)c4cccc(F)c4)CC3)C2)c1

EC50 [14]: > 29.9 µM (not active)
EC50 [15]: 10.1 µM (not active)
AC50 [16]: 11.2 µM (inconclusive)
SMILES: CN(C)S(=O)(=O)c1cc([N+](=O)[O-])ccc1N1CCCCCC1

EC50 [6]: > 92.5 µM (inactive)
EC50 [7]: > 92.5 µM (inactive)
EC50 [8]: > 92.5 µM (inactive)
SMILES: Cc1cc(=O)oc2cc(NC(=O)C3COc4ccccc4O3)ccc12 (stereo not given)

AC50 [9]: inconclusive
SMILES: Cn1c(=O)[nH]c(=O)c2c1nc(CN1CCOCC1)n2Cc1ccccc1

EC50 [6]: > 92.5 µM (inactive)
EC50 [7]: 26.9 µM (inactive)
EC50 [8]: 18.5 µM (inactive)
SMILES: COc1ccc(C(CNC(=O)c2cncc(Br)c2)N(C)C)cc1 (stereo not given)

IC50 [10]: 45.5 µM (active)
SMILES: Cc1cc(C(=O)N/N=C/c2ccc(-c3ccc(C)c(Cl)c3)o2)[nH]n1
